Test results reported in patent US20260327239A1, “COMPOUNDS FOR COVALENT INHIBITION OF SHP2” (Purdue Research Foundation, priority 2023, published 2026).

Key:
SHP1 = SHP1 (Homo sapiens, UniProt P29350); assay: Time-dependent IC50 determination, SHP1 (10 min preincubation, pNPP); type: biochemical
Procedure: (§1) During active compound characterization, other common PTPs, including SHP1. PTP1B, and LYP, were counter-screened. Compounds were incubated for 10 minutes with the corresponding PTP (4 μM) before being diluted 50-fold into a solution containing excess substrate para-nitrophenyl phosphate (10 mM) to monitor the remaining activity. […] This was not expected, given their high sequence and structural homology. […] While unexpected, the lower sequence homology provides a rationale for the observed selectivity.
(§2) Inhibitors were evaluated for their ability to inhibit the reaction catalyzed by SHP2 using para-nitrophenyl phosphate (pNPP) as a substrate at pH 7 and 25° C. The reaction was started in a clear flat-bottom 96-well plate (Corning Costar Assay Plate #9017) by the addition of 25 μL of 4 μM PTP in DMG buffer to 25 μl of 2× inhibitor (final concentrations=2 μM PTP, 100-0 μM inhibitor). Reactions were incubated for 1 or 10 minutes before transferring 4 μL into 196 μL of 10.1 mM pNPP in DMG buffer (final concentration=40 nM PTP, 10 mM pNPP). These wells were then allowed to react for 10, 45, or 3 minutes for SHP1 and SHP2, LYP, PTP1B respectively before quenching with 50 μL of 5 M NaOH. Plates were then read for absorbance at 405 nm using a CLARIOstar^Plus plate reader (BMG Labetch). […]

PTP1B = molecular target: T1, PTP1B (Homo sapiens, UniProt P18031); assay: Time-dependent IC50 determination, PTP1B (10 min preincubation, pNPP); type: biochemical
T1 sequence (P18031 1-435): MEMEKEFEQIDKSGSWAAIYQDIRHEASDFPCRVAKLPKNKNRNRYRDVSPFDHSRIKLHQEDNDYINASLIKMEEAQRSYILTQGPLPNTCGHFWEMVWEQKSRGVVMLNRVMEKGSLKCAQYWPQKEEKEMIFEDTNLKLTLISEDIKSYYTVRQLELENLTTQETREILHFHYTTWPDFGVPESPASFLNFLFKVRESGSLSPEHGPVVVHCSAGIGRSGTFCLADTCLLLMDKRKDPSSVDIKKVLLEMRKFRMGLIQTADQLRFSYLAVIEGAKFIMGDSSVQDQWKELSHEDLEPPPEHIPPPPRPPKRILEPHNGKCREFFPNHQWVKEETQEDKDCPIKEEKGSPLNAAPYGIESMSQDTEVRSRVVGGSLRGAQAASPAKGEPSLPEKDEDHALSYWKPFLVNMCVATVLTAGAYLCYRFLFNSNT
Procedure: as §1, §2

SHP1, sequence (P29350 whole entry): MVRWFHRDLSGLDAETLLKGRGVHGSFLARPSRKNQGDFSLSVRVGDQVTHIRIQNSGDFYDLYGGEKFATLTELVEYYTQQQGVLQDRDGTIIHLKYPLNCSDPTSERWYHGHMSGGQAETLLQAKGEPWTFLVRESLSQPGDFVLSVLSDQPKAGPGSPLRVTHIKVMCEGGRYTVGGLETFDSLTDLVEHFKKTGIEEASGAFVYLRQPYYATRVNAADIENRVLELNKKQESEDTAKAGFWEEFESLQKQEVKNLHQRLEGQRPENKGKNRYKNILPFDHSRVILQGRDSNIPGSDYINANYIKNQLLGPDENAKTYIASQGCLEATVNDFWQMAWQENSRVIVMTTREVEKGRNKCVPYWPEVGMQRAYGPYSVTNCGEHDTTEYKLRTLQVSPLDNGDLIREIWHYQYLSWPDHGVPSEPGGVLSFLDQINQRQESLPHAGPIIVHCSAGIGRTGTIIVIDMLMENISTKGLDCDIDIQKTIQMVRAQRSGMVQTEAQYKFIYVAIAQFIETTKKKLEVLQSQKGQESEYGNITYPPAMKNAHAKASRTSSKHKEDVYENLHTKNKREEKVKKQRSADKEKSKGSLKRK

C=C1C(=O)[C@@]2(C(=O)N3CCN(c4ccc(I)cc4)CC3)CC(=O)C[C@@H]1C2 [Compound 37]
IC50 (SHP1; SHP1, 10 minutes preincubation, curve not completed (solubility), extrapolated, read-out: 10 Minute IC50): 212 µM
Fold-Selective (10 Minutes) (SHP1; SHP2 over SHP1): 13.75 fold
IC50 (PTP1B; PTP1B, 10 minutes preincubation, curve not completed (solubility), extrapolated, read-out: 10 Minute IC50): 677 µM
Fold-Selective (10 Minutes) (PTP1B; SHP2 over PTP1B): 44.56
